Measurements reported in article PMC4175002, “The Design and Synthesis of Potent and Selective Inhibitors of Trypanosoma brucei Glycogen Synthase Kinase 3 for the Treatment of Human African Trypanosomiasis” (Journal of Medicinal Chemistry, 2014).

Legend:
Test in all cases: Mammalian kinase profiling (DSTT panel)
Assay type in all cases: biochemical
[1] = target: T1, MST2 (Homo sapiens, UniProt Q13188); details: 10 μM; average percentage of remaining activity
T1 construct: purchased Division of Signal Transduction Therapy (DSTT), University of Dundee
T1 sequence (Q13188 1-491): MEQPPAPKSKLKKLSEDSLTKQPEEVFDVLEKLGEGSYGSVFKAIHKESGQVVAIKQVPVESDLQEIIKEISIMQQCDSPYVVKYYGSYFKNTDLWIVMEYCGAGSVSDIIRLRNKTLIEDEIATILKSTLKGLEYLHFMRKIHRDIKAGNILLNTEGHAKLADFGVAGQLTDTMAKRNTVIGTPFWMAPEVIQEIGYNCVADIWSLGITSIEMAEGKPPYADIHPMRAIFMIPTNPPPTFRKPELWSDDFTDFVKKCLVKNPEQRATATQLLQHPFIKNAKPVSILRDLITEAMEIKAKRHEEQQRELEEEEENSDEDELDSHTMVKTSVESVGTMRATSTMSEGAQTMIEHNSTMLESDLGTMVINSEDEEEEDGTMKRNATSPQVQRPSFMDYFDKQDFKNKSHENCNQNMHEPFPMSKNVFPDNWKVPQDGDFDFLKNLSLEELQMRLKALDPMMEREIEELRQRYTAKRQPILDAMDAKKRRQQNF
Method: (§1) To assess the selectivity of the aminopyrazole inhibitors, remaining activity at 10 μM concentration was measured for compounds 4f, 4m, and 4y against a panel of 80 human PKs and for compound 9g against 124 human PKs. […] Compound 4m inhibited only two PKs, namely GSK3β and CDK2, at more than 80%.
(§2) Selected compounds were screened against a panel of mammalian kinases routinely run by the Division of Signal Transduction Therapy (DSTT) at the University of Dundee in duplicate at 10 μM.[32] Enzymes included in the panel and assay conditions are reported in the literature. All biochemical assays are run below the Km^app for the ATP for each enzyme, allowing comparison of inhibition across the panel.

[2] = target: T2, PDK1 (Homo sapiens, UniProt O15530); details: 10 μM; average percentage of remaining activity
T2 construct: purchased Division of Signal Transduction Therapy (DSTT), University of Dundee
T2 sequence (O15530 1-556): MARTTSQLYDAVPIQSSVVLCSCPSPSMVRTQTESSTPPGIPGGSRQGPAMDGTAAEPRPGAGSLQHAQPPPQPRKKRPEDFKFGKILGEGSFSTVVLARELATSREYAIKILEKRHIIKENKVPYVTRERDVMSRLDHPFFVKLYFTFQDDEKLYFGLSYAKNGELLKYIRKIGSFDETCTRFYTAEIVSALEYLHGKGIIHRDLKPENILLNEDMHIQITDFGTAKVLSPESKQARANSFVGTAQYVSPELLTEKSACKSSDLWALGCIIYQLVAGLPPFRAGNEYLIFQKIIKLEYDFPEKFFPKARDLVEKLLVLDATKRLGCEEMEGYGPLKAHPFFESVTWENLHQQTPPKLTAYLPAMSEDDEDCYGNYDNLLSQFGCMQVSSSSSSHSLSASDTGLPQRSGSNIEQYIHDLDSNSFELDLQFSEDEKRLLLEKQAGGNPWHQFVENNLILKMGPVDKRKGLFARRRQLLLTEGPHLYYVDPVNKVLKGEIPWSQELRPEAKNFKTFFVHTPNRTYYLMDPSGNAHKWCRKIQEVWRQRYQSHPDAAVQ
Method: as §1, §2

[3] = target: T3, ROCK2 (Homo sapiens, UniProt O75116); details: 10 μM; average percentage of remaining activity
T3 construct: purchased Division of Signal Transduction Therapy (DSTT), University of Dundee
Method: as §1, §2

[4] = target: T4, CAMKKb (Homo sapiens, UniProt Q96RR4); details: 10 μM; average percentage of remaining activity
T4 construct: purchased Division of Signal Transduction Therapy (DSTT), University of Dundee
T4 sequence (Q96RR4 whole entry): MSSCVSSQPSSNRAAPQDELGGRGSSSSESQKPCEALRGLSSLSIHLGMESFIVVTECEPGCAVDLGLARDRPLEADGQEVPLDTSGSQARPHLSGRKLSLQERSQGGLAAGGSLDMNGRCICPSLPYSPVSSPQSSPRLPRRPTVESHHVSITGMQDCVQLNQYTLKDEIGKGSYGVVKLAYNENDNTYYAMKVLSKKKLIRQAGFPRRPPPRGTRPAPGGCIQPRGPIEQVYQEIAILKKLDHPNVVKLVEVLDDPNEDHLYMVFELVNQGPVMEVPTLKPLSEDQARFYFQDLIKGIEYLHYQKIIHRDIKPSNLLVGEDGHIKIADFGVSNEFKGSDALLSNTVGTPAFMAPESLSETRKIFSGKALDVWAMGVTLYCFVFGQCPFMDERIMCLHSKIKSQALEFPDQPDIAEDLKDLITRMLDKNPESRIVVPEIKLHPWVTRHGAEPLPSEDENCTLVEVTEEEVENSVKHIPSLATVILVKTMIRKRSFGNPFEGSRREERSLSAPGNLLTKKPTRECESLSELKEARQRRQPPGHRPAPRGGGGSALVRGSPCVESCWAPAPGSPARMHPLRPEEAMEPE
Method: as §1, §2

[5] = target: T5, VEG-FR (Homo sapiens, UniProt P17948); details: 10 μM; average percentage of remaining activity
T5 construct: purchased Division of Signal Transduction Therapy (DSTT), University of Dundee
T5 sequence (P17948 27-1338): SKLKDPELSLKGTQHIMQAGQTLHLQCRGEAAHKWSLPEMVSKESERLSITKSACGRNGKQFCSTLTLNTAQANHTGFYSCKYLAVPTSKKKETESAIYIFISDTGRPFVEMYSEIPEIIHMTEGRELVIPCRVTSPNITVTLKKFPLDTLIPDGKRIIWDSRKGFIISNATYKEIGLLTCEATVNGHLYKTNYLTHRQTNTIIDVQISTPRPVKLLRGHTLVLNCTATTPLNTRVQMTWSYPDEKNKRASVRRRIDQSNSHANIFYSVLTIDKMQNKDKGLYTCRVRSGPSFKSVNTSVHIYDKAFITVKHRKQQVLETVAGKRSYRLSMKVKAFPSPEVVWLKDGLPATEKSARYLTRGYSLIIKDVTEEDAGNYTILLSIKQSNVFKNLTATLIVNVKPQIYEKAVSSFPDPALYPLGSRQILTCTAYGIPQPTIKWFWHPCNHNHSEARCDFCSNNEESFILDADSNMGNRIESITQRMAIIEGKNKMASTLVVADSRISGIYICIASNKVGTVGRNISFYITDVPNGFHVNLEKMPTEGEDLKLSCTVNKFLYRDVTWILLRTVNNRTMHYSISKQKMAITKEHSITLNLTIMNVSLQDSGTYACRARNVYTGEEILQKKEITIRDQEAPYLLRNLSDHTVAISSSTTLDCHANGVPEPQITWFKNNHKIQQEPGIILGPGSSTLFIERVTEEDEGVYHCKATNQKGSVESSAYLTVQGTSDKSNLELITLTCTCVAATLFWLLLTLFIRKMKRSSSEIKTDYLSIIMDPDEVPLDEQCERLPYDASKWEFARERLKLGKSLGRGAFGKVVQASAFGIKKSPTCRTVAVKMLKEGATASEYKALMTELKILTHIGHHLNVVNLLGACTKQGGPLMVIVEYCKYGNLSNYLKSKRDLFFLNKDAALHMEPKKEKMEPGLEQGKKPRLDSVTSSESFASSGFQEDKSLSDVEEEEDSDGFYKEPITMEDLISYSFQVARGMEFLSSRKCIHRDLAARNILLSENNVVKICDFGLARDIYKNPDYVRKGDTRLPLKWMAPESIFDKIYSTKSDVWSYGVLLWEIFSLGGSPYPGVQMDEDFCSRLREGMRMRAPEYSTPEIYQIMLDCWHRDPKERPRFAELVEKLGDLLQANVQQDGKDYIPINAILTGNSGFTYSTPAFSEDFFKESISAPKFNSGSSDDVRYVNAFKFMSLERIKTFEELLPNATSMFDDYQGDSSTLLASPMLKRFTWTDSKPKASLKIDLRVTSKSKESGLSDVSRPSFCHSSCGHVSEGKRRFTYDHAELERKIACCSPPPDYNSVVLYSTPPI
Method: as §1, §2

[6] = target: T6, PKBb (Homo sapiens, UniProt P31751); details: average percentage of remaining activity, read-out: PKBb activity compared to the control
T6 construct: purchased Division of Signal Transduction Therapy (DSTT), University of Dundee
T6 sequence (P31751 whole entry): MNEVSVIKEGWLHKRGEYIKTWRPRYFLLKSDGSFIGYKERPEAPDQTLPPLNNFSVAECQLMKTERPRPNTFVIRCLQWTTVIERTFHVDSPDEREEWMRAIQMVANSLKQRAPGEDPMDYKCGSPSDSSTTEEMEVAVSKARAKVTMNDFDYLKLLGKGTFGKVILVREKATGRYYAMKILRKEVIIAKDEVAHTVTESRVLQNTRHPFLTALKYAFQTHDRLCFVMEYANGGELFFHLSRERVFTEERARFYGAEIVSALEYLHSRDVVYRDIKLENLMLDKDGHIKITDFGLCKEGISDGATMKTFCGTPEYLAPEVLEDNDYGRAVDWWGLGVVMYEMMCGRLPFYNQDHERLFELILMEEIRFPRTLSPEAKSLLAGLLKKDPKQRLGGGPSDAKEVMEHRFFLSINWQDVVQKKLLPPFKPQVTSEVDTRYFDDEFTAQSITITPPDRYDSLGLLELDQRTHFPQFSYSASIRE
Method: as §1, §2

[7] = target: T7, SRPK1 (Homo sapiens, UniProt Q96SB4); details: 10 μM; average percentage of remaining activity
T7 construct: purchased Division of Signal Transduction Therapy (DSTT), University of Dundee
Method: as §1, §2

[8] = target: T8, P38g MAPK (Homo sapiens, UniProt P53778); details: 10 μM; average percentage of remaining activity
T8 construct: purchased Division of Signal Transduction Therapy (DSTT), University of Dundee
T8 sequence (P53778 1-367): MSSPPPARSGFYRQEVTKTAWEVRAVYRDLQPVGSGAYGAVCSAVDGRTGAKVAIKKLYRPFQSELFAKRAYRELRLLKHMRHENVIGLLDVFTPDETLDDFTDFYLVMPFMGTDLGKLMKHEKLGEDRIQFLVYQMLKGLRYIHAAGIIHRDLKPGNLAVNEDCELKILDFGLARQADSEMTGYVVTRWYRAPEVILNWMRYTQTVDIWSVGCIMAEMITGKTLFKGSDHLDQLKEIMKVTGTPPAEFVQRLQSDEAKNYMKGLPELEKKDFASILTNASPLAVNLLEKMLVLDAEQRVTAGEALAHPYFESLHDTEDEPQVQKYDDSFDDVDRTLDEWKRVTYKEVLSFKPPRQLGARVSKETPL
Method: as §1, §2

[9] = target: T9, PAK5 (Homo sapiens, UniProt Q9P286); details: 10 μM; average percentage of remaining activity
T9 construct: purchased Division of Signal Transduction Therapy (DSTT), University of Dundee
Method: as §1, §2

[10] = target: T10, S6K1 (Homo sapiens, UniProt P23443); details: 10 μM; average percentage of remaining activity
T10 construct: purchased Division of Signal Transduction Therapy (DSTT), University of Dundee
T10 sequence (P23443 whole entry): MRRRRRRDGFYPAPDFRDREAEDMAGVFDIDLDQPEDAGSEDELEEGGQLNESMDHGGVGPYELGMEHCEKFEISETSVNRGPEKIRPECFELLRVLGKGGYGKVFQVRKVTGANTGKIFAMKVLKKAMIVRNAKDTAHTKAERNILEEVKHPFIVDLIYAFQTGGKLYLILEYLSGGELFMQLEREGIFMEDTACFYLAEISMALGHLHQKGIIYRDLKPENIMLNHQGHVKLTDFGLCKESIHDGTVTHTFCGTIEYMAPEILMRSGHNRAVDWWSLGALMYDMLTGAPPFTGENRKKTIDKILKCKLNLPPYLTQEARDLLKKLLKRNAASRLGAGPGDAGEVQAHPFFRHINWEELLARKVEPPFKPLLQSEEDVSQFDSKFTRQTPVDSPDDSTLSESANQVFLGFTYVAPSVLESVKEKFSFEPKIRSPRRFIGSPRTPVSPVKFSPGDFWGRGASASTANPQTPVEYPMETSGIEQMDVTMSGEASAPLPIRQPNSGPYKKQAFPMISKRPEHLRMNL
Method: as §1, §2

[11] = target: T11, RSK1 (Homo sapiens, UniProt Q15418); details: 10 μM; average percentage of remaining activity
T11 construct: purchased Division of Signal Transduction Therapy (DSTT), University of Dundee
T11 sequence (Q15418 whole entry): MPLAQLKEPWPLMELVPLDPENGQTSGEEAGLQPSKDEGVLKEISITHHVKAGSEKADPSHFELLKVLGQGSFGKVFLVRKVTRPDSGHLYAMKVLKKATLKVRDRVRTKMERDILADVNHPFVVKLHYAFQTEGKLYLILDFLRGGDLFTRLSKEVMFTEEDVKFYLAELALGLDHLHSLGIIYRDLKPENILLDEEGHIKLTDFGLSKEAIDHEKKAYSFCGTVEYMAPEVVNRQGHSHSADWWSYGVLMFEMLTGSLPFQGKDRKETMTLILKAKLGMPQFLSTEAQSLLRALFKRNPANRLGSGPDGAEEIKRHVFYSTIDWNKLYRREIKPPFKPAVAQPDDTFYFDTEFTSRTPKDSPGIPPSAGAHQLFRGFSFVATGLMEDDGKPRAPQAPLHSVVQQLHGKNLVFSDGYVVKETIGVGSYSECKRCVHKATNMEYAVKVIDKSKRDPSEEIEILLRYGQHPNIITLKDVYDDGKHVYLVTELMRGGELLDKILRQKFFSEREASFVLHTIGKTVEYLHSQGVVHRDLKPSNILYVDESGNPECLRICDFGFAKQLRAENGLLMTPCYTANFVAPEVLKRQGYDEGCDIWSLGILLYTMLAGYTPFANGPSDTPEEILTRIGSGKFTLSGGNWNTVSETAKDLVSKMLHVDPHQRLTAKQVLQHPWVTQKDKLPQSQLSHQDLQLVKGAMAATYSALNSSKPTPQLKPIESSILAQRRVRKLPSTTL
Method: as §1, §2

[12] = target: T12, SGK1 (Homo sapiens, UniProt O00141); details: 10 μM; average percentage of remaining activity
T12 construct: purchased Division of Signal Transduction Therapy (DSTT), University of Dundee
T12 sequence (O00141 1-431): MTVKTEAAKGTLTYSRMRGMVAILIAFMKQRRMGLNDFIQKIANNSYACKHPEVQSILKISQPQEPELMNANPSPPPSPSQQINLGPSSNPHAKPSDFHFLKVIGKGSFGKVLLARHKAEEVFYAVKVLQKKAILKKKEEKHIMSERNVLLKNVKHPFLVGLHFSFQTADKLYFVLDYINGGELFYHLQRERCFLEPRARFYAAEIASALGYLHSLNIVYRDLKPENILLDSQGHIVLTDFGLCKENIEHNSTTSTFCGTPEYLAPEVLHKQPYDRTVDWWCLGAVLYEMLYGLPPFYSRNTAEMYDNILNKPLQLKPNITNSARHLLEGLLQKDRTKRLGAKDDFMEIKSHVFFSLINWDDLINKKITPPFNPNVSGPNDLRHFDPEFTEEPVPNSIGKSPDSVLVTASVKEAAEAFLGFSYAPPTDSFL
Method: as §1, §2

[13] = target: T13, CK2 (Homo sapiens, UniProt P68400); details: 10 μM; average percentage of remaining activity
T13 construct: purchased Division of Signal Transduction Therapy (DSTT), University of Dundee
T13 sequence (P68400 whole entry): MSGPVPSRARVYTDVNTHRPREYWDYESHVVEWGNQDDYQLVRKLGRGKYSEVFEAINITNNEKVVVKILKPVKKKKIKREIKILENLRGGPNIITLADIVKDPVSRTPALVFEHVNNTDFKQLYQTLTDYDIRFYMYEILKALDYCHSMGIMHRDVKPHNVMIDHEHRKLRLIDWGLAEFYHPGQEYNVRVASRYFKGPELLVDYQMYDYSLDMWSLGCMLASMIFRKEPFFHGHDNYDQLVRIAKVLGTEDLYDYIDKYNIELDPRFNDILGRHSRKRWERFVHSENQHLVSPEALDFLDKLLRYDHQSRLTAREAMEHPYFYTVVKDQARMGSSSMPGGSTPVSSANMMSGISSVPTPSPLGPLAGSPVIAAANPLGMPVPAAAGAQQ
Method: as §1, §2

[14] = target: T14, MNK1 (Homo sapiens, UniProt Q9BUB5); details: 10 μM; average percentage of remaining activity
T14 construct: purchased Division of Signal Transduction Therapy (DSTT), University of Dundee
Method: as §1, §2

[15] = target: T15, SmMLCK (Homo sapiens, UniProt Q15746); details: 10 μM; average percentage of remaining activity
T15 construct: purchased Division of Signal Transduction Therapy (DSTT), University of Dundee
T15 sequence (Q15746 923-1914): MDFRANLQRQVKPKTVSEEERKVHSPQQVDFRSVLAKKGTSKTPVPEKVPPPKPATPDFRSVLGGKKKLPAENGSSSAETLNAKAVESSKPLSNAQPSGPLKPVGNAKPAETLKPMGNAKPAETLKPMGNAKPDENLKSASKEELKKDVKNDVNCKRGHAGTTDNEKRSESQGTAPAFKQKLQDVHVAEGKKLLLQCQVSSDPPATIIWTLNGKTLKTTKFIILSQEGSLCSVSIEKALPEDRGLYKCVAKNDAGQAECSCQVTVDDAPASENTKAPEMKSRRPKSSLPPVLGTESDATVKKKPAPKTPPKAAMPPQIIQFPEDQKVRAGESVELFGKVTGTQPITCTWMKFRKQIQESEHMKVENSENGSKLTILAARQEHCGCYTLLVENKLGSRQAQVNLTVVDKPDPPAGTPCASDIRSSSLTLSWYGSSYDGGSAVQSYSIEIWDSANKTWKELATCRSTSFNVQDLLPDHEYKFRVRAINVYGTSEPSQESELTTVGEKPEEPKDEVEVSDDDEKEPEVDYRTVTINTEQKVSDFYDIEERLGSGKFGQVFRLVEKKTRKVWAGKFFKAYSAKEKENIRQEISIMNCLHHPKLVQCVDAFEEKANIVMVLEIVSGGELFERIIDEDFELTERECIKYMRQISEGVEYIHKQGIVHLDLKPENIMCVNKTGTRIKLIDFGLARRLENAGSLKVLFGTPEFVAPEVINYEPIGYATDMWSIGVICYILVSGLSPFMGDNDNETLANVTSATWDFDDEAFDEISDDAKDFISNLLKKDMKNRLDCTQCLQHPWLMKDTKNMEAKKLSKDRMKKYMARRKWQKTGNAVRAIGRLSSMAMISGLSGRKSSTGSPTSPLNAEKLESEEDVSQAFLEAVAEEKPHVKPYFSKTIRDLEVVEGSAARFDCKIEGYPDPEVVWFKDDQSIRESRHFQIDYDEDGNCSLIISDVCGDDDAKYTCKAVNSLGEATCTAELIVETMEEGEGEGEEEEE
Method: as §1, §2

[16] = target: T16, SYK (Homo sapiens, UniProt P43405); details: 10 μM; average percentage of remaining activity
T16 construct: purchased Division of Signal Transduction Therapy (DSTT), University of Dundee
Method: as §1, §2

| Compound | MST2 activity compared to the control [1] [%] | PDK1 activity compared to the control [2] [%] | ROCK2 activity compared to the control [3] [%] | CAMKKb activity compared to the control [4] [%] | VEG-FR activity compared to the control [5] [%] | remaining activity at 10 µM [6] [%] | SRPK1 activity compared to the control [7] [%] | P38g MAPK activity compared to the control [8] [%] | PAK5 activity compared to the control [9] [%] | S6K1 activity compared to the control [10] [%] | RSK1 activity compared to the control [11] [%] | SGK1 activity compared to the control [12] [%] | CK2 activity compared to the control [13] [%] | MNK1 activity compared to the control [14] [%] | SmMLCK activity compared to the control [15] [%] | SYK activity compared to the control [16] [%] |
| --- | --- | --- | --- | --- | --- | --- | --- | --- | --- | --- | --- | --- | --- | --- | --- | --- |
| CO[C@H]1CC[C@H](NC(=O)c2n[nH]cc2NC(=O)c2ccccc2)CC1 [Compound 4f, 4-Benzamido-N-(4-methoxycyclohexyl)-1H-pyrazole-3-carboxamide] | 72 | 87 | 81 | 34 | 52 | 45 | 90 | 60 | 68 | 100 | 74 | 89 | 74 | 76 | 25 | 78 |
| COc1cccc(OC)c1C(=O)Nc1c[nH]nc1C(=O)NC1CCC(OC)CC1 (stereo not drawn) [Compound 4m, 4-(2,6-Dimethoxybenzamido)-N-(4-methoxycyclohexyl)-1H-pyrazole-3-carboxamide] | 81 | 87 | 74 | 50 | 90 | 98 | 78 | 72 | 75 | 100 | 70 | 92 | 100 | 81 | 65 | 100 |
| CO[C@H]1CC[C@H](NC(=O)c2n[nH]cc2NC(=O)c2ccc(-c3ccccc3)o2)CC1 [Compound 4y, N-(4-Methoxycyclohexyl)-4-(5-phenylfuran-2-carboxamido)-1H-pyrazole-3-carboxamide] | 69 | 86 | 72 | 27 | 29 | 84 | 72 | 24 | 47 | 58 | 54 | 81 | 21 | 82 | 23 | 70 |
